Measured values published in US20090311237A1, “Combination therapy using a soluble hyaluronidase and a bisphosphonate” (priority 2008, published 2009).

Assay: Phase 1 Stage 1 clinical pharmacokinetics of SC ZA co-administered with rHuPH20
Type: in vivo, human
Experimental: A pharmacokinetic study of zoledronic acid (ZA) co-administered with rHuPH20 in human subjects was conducted. The primary objective of the study was to determine the bioavailability of zoledronic acid dosed via subcutaneous (SC) co-administration with human recombinant hyaluronidase PH20 (rHuPH20). […] The patients were administered the prescribed dosage formulations as follows: Cohorts 1-5 were administered a single subcutaneous infusion in a dosage volume of 100 ml at a rate of 3 mL/min. […] The dosing solution is administered via needle or catheter into the SC space of the left anterior thigh (midway between the anterior iliac crest and the cephalad border of the patella). For cohorts 1-5, the dosing solutions were administered by a controlled rate infusion pump at approximately 3 mL/minute. […] The dosing solutions were administered by syringe push bolus injection. […] Serum concentration of ZA was determined using a qualified LC-MS-MS assay after derivatization with diazomethane (Zhu, L S et al. (2006) Rapid Commun. […] The assay range was from 2.0 to 400 ng/mL with a lower limit of quantitation (LLOQ) at 2.0 ng/mL. […] Non-compartmental analysis was used for derivation of primary and secondary pharmacokinetic (PK) parameters. […] Summary statistics (mean, standard deviation, and median) were calculated using JMP or Microsoft Excel.

[1] = Subj 1, ZA […] SC, inf 0.554 hr, PH20 23928 U
[2] = Subj 8, ZA […] SC, inf 0.531 hr, PH20 22944 U
[3] = Subj 11, ZA […] SC, inf 0.554 hr, PH20 23928 U
[4] = Subj 16, ZA […] SC, inf 0.553 hr, PH20 23904 U
[5] = Subj 18, ZA […] SC, inf […], PH20 23304 U
[6] = Subj 21, ZA […] SC, inf 0.556 hr, PH20 24000 U
[7] = Subj 25, ZA […] SC, inf 0.549 hr, PH20 23736 U
[8] = Subj 26, ZA […] SC, inf […], PH20 23088 U
[9] = Subj 27, ZA 0.0196 mg/kg SC, inf […], PH20 23976 U
[10] = Subj 29, ZA 0.0339 mg/kg SC, inf 0.556 hr, PH20 24000 U
[11] = Subj 31, ZA […] SC, inf 0.554 hr, PH20 23952 U
[12] = Subj 32, ZA […] SC, inf 0.556 hr, PH20 24000 U
[13] = Subj 37, ZA 0.0791 mg/kg SC, inf 0.556 hr, PH20 24000 U
[14] = Subj 38, ZA 0.0706 mg/kg SC, inf 0.554 hr, PH20 23952 U
[15] = Subj 39, ZA 0.0691 mg/kg SC, inf 0.552 hr, PH20 23856 U
[16] = Subj 41, ZA 0.0653 mg/kg SC, inf […], PH20 12216 U
[17] = Subj 46, ZA 0.0877 mg/kg SC, inf 0.276 hr, PH20 12000 U
[18] = Subj 51, ZA […] SC, inf 0.251 hr, PH20 6024 U

Structure (SMILES): O=P(O)(O)C(O)(Cn1ccnc1)P(=O)(O)O [ZA, 1-hydroxy-2-(1H-imidazol-1-yl)ethylidene-1,1-bisphosphonic acid]
- AUC (0-inf)/D [1]: 0.006638 kg·h/mL
- CL [1]: 2.511 mL/min/kg
- Cmax/D [1]: 0.001722 kg/mL
- Vss [1]: 0.44318 L/kg
- Vz [1]: 0.40861 L/kg
- AUC (0-inf)/D [2]: 0.01019 kg·h/mL
- CL [2]: 1.635 mL/min/kg
- Cmax/D [2]: 0.001772 kg/mL
- Vss [2]: 0.45621 L/kg
- Vz [2]: 0.43706 L/kg
- AUC (0-inf)/D [3]: 0.009322 kg·h/mL
- CL [3]: 1.7878 mL/min/kg
- Cmax/D [3]: 0.002073 kg/mL
- Vss [3]: 0.36447 L/kg
- Vz [3]: 0.33982 L/kg
- AUC (0-inf)/D [4]: 0.007097 kg·h/mL
- CL [4]: 2.3485 mL/min/kg
- Cmax/D [4]: 0.001739 kg/mL
- Vss [4]: 0.44893 L/kg
- Vz [4]: 0.44919 L/kg
- AUC (0-inf)/D [5]: 0.00801 kg·h/mL
- CL [5]: 2.0807 mL/min/kg
- Cmax/D [5]: 0.002012 kg/mL
- Vss [5]: 0.40254 L/kg
- Vz [5]: 0.40424 L/kg
- AUC (0-inf)/D [6]: 0.009748 kg·h/mL
- CL [6]: 1.7097 mL/min/kg
- Cmax/D [6]: 0.002152 kg/mL
- Vss [6]: 0.34316 L/kg
- Vz [6]: 0.33661 L/kg
- AUC (0-inf)/D [7]: 0.006861 kg·h/mL
- CL [7]: 2.4293 mL/min/kg
- Cmax/D [7]: 0.00176 kg/mL
- Vss [7]: 0.77861 L/kg
- Vz [7]: 1.64423 L/kg
- AUC (0-inf)/D [8]: 0.01198 kg·h/mL
- CL [8]: 1.391 mL/min/kg
- Cmax/D [8]: 0.002609 kg/mL
- Vss [8]: 0.42621 L/kg
- Vz [8]: 1.01736 L/kg
- AUC (0-inf)/D [9]: 0.006142 kg·h/mL
- CL [9]: 2.7135 mL/min/kg
- Cmax/D [9]: 0.001276 kg/mL
- Vss [9]: 0.91422 L/kg
- Vz [9]: 1.53448 L/kg
- AUC (0-inf)/D [10]: 0.007095 kg·h/mL
- CL [10]: 2.349 mL/min/kg
- Cmax/D [10]: 0.001853 kg/mL
- Vss [10]: 0.66499 L/kg
- Vz [10]: 1.76877 L/kg
- AUC (0-inf)/D [11]: 0.007665 kg·h/mL
- CL [11]: 2.1745 mL/min/kg
- Cmax/D [11]: 0.001699 kg/mL
- Vss [11]: 0.67025 L/kg
- Vz [11]: 1.66854 L/kg
- AUC (0-inf)/D [12]: 0.008441 kg·h/mL
- CL [12]: 1.9745 mL/min/kg
- Cmax/D [12]: 0.001677 kg/mL
- Vss [12]: 1.2493 L/kg
- Vz [12]: 3.76429 L/kg
- AUC (0-inf)/D [13]: 0.007838 kg·h/mL
- CL [13]: 2.1265 mL/min/kg
- Cmax/D [13]: 0.001656 kg/mL
- Vss [13]: 1.39565 L/kg
- Vz [13]: 4.2995 L/kg
- AUC (0-inf)/D [14]: 0.009027 kg·h/mL
- CL [14]: 1.8463 mL/min/kg
- Cmax/D [14]: 0.001657 kg/mL
- Vss [14]: 1.52947 L/kg
- Vz [14]: 3.90822 L/kg
- AUC (0-inf)/D [15]: 0.01052 kg·h/mL
- CL [15]: 1.584 mL/min/kg
- Cmax/D [15]: 0.002127 kg/mL
- Vss [15]: 1.20501 L/kg
- Vz [15]: 3.57183 L/kg
- AUC (0-inf)/D [16]: 0.01128 kg·h/mL
- CL [16]: 1.478 mL/min/kg
- Cmax/D [16]: 0.002159 kg/mL
- Vss [16]: 2.37143 L/kg
- Vz [16]: 5.48166 L/kg
- AUC (0-inf)/D [17]: 0.008516 kg·h/mL
- CL [17]: 1.957 mL/min/kg
- Cmax/D [17]: 0.002429 kg/mL
- Vss [17]: 1.09639 L/kg
- Vz [17]: 3.51646 L/kg
- AUC (0-inf)/D [18]: 0.009685 kg·h/mL
- CL [18]: 1.721 mL/min/kg
- Cmax/D [18]: 0.001817 kg/mL
